# Results taken from patent US20240377321A1, “HOLOGRAPHIC IMAGE PROCESSING AND DATA EXTRACTION” (Accelerate Diagnostics, Inc., priority 2023, published 2024).
# System: Klebsiella oxytoca (CDCJI 380)
# Assay: holographic monitoring of cellular growth of Klebsiella oxytoca incubated with antibiotic
# Assay type: cell-based
# Settings: 0.5 mg/mL Meropenem, about eight hours incubation
# Description: FIGS. 18A-18E depict a sequence of photographs A-E of a sample volume 18, with FIG. 18A depicting the earliest photograph, and FIG. 18E depicting the latest photograph. The photographs A-E show cellular growth of Klebsiella oxytoca (CDCJI 380), which was incubated with 0.5 mg/mL of the antibiotic Meropenem over a period of about eight hours. The photographs A-E provide an example of a complex response of microorganisms to an antibiotic. A holograph 32 of the sample volume 18 was captured every ten minutes during the incubation period. FIG. 19 depicts a graph including a plot 170 of a cellular growth indicator (e.g., the holographic intensity variance) extracted from the full holograph 32, and a plot 172 of the cellular growth indicator extracted from the set of pixels comprising tile six of the holograph 32. The times corresponding to the photographs A-E of FIGS. 18A-18E are indicted by correspondingly labeled arrows in the graph of FIG. 19. […] The slight rise in the cellular growth indicator after seven hours is the earliest indication of a potential resurgence of cell growth, e.g., due to the microorganism becoming resistant.
# The divergence of tile plot 172 from the full-holograph plot 170 begins at about the three and half hour mark. This is due to the response of the microorganism to the antibiotic in the localized region of the sample volume corresponding to tile six. This region of the sample volume contains a subpopulation of bacterial cells that appear to have become resistant to the antibiotic, and have begun to grow in colony clusters. This example of delayed resistance to an antibiotic is clinically relevant, and recognizing the resistance early in a test can lead to timely administration of the correct antibiotic at the right dose to treat the patient. From an algorithmic perspective, systematically dividing holographs into portions (e.g., tiles) and calculating the cellular growth indicator for each portion can be used to identify events or hot spots in the growth or death of microorganisms.
structure (smiles),measurement,setting,value
C[C@@H](O)[C@H]1C(=O)N2C(C(=O)O)=C(S[C@@H]3CN[C@H](C(=O)N(C)C)C3)[C@H](C)[C@H]12 [Meropenem],"cellular growth indicator (e.g., holographic intensity variance) over time, full holograph",full-holograph plot 170,"decreases after three and a half hours of incubation, followed by a slight increase after seven hours of incubation"
same,response of microorganism to antibiotic based on full-holograph plot,"holograph every ten minutes, full-holograph plot 170",appears to be sensitive to the dose of antibiotic
same,"cellular growth indicator over time, tile six of the holograph",tile plot 172 (tile six),resurgent growth due to emerging antibiotic resistance at about four and a half hours
